The nature of this data set: Pharmacokinetics test in beagle dogs (capsule by gavage, plasma LC/MS/MS). It counts as in vivo. Here is the method: The LC/MS/MS system used in the analysis consists of an Agilent 1200 Series vacuum degasser, binary pump, well-plate autosampler, thermostated column compartment, the Agilent G6430 Triple Quadrupole Mass Spectrometer with an electrosprayionization (ESI) source. Quantitative analysis was carried out using MRM mode. The parameters for MRM transitions are in the Table A.
An Agilent XDB-C18, 2.1×30 mm, 3.5 μM column was used for the analysis. 5 μL of the samples were injected. Analysis condition: The mobile phase was 0.1% formic acid in water (A) and 0.1% formic acid in methanol (B). The flow rate was 0.4 mL/min. And the gradient of Mobile phase was in the Table B.
An ESI source was used on the LC/MS/MS spectrometer. The analysis was done in positive ion mode as appropriate and the MRM transition for each analyte was optimized using standard solution. A Capcell MP-C18 100×4.6 mm I.D., […] column (Phenomenex, Torrance, Calif., USA) was used during the analysis. The mobile phase was 5 mM ammonia acetate, 0.1% MeOH in water (A): 5 mM ammonia acetate, 0.1% MeOH in acetonitrile (B) (70/30, v/v). The flow rate was 0.6 mL/min. Column was maintained at ambient temperature. 20 μL of the samples were injected.
The blood samples (0.3 mL) were drawn at 0.25, 0.5, 1.0, 2.0, 3.0, 4.0, 6.0, 8.0, 12 and 24 hour time points or 0.083, 0.25, 0.5, 1.0, 2.0, 4.0, 6.0, 8.0 and 24 hour time points and centrifuged at 3,000 or 4000 rpm for 2 to 10 min. The plasma solutions were collected, and analyzed by LC/MS/MS as described above. The pharmacokinetic parameters were calculated according to non-compartment model using WinNonlin procedure.

Where [1] appears, read: capsule by gavage, dose 2.5 mg/kg, plasma.

This note sets out measurements from patent publication US11179376B2, “Salts of pyrazolo[1,5-a]pyridine derivative and use thereof” (SUNSHINE LAKE PHARMA CO., LTD., priority 2017, dated 2021).

Structures are written as SMILES. Where a name gives a salt, the structure may show the parent alone. Read-outs that look alike come from different tables or passages of the source.

Turning to `COc1ncc(-c2ccn3ncc(C#N)c3c2)cc1NS(=O)(=O)c1ccc(F)cc1F` [crystalline form A of mono-choline salt, N-(5-(3-cyanopyrazolo[1,5-α]pyridin-5-yl)-2-methoxypyridin-3-yl)-2,4-difluorobenzenesulfonamide], under setting [1], the AUClast was determined as 9130 ng·h/mL, the Cmax was determined as 3220 ng/mL and the Tmax worked out at 1.08 h.
Turning to `COc1ncc(-c2ccn3ncc(C#N)c3c2)cc1NS(=O)(=O)c1ccc(F)cc1F` [Compound of formula (I), N-(5-(3-cyanopyrazolo[1,5-α]pyridin-5-yl)-2-methoxypyridin-3-yl)-2,4-difluorobenzenesulfonamide], the AUC(0-t) (dog, po, capsule by gavage, dose 2.5 mg/kg, plasma) is 1550 ng·h/mL. Besides, under “dog, po, capsule by gavage, dose 2.5 mg/kg, plasma, read-out: Cmax”, the Cmax came to 482 ng/mL. For the setting “dog, po, capsule by gavage, dose 2.5 mg/kg, plasma, read-out: Tmax”, the Tmax turned out to be 1.67 h.
Turning to `COc1ncc(-c2ccn3ncc(C#N)c3c2)cc1NS(=O)(=O)c1ccc(F)cc1F` [crystalline form C of mono-sodium salt, N-(5-(3-cyanopyrazolo[1,5-α]pyridin-5-yl)-2-methoxypyridin-3-yl)-2,4-difluorobenzenesulfonamide], under setting [1], the AUClast was determined as 5700 ng·h/mL, the Cmax is reported as 1410 ng/mL and the time to peak (Tmax) is listed as 2.33 h.
The corresponding values for `COc1ncc(-c2ccn3ncc(C#N)c3c2)cc1NS(=O)(=O)c1ccc(F)cc1F` [crystalline form A of mono-lithium salt, N-(5-(3-cyanopyrazolo[1,5-α]pyridin-5-yl)-2-methoxypyridin-3-yl)-2,4-difluorobenzenesulfonamide] are 4290 ng·h/mL, 1640 ng/mL and 1.5 h.
The corresponding values for `COc1ncc(-c2ccn3ncc(C#N)c3c2)cc1NS(=O)(=O)c1ccc(F)cc1F` [crystalline form A of mono-sodium salt, N-(5-(3-cyanopyrazolo[1,5-α]pyridin-5-yl)-2-methoxypyridin-3-yl)-2,4-difluorobenzenesulfonamide] are 8730 ng·h/mL, 2820 ng/mL and 2.5 h.
As to `COc1ncc(-c2ccn3ncc(C#N)c3c2)cc1NS(=O)(=O)c1ccc(F)cc1F` [amorphous form of mono-sodium salt, N-(5-(3-cyanopyrazolo[1,5-α]pyridin-5-yl)-2-methoxypyridin-3-yl)-2,4-difluorobenzenesulfonamide], under setting [1], the AUClast is 7290 ng·h/mL, the Cmax came out at 2180 ng/mL and the Tmax is 1.33 h.
As to `COc1ncc(-c2ccn3ncc(C#N)c3c2)cc1NS(=O)(=O)c1ccc(F)cc1F` [N-(5-(3-cyanopyrazolo[1,5-α]pyridin-5-yl)-2-methoxypyridin-3-yl)-2,4-difluorobenzenesulfonamide], the “exposure and bioavailability in vivo” value (Cmax and AUClast much larger than those of compound of formula (I)) was “good exposure and bioavailability”. Besides, under setting [1], the AUClast is 8420 ng·h/mL, the Cmax stood at 3050 ng/mL and the Tmax came to 0.667 h.
As for `COc1ncc(-c2ccn3ncc(C#N)c3c2)cc1NS(=O)(=O)c1ccc(F)cc1F` [crystalline form B of mono-sodium salt, N-(5-(3-cyanopyrazolo[1,5-α]pyridin-5-yl)-2-methoxypyridin-3-yl)-2,4-difluorobenzenesulfonamide], under setting [1], the AUClast was 9370 ng·h/mL, the Cmax came to 4530 ng/mL and the Tmax is recorded as 0.583 h.

One may read the Cmax as the highest concentration seen after dosing. For orientation: Tmax means the time at which the peak concentration occurs. One may read the AUC(0-t) as the area under the concentration-time curve up to a stated or last time point. High values mean high exposure, low ones low exposure.
